Target: T1, STK33 (Homo sapiens, UniProt Q9BYT3)
T1 construct: purchased Thermo Fisher Scientific (Life Technologies) SelectScreen
Test: SelectScreen LanthaScreen
Assay type: binding
Settings: read-out: % displacement
Procedure, shortened: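 NU5455 was profiled across the SelectScreen Broad panel of kinase activity and binding assays. Z'LYTE reactions such as CSF1R ran at apparent Km ATP, while the Adapta CAMK1 assay used ATP listed as 10. Values are given as percent.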

T1 sequence (Q9BYT3 whole entry): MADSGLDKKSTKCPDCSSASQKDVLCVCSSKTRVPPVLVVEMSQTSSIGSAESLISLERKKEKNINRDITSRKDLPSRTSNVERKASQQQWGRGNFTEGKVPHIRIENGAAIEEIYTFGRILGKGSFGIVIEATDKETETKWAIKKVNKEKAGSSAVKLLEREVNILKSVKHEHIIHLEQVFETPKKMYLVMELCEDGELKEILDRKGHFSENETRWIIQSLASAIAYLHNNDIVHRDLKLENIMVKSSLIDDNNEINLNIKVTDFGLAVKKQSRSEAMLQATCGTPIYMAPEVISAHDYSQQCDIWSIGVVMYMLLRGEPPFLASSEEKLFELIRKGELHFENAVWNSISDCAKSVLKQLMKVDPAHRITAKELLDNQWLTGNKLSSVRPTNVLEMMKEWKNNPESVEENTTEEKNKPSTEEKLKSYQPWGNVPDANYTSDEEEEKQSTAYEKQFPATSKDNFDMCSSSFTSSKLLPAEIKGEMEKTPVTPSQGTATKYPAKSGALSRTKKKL

CN(C(=O)CN1CCOCC1)c1ccc2sc3c(-c4cccc5c(=O)cc(N6CC7CCC(C6)O7)oc45)cccc3c2c1 [NU5455]
inhibition at 1 µM: 4.7%
